Experimental data reported in patent publication US20250171496A1, “FUSION PEPTIDE FOR REGULATING ACTIVATION OF MAM AND USE THEREOF” (UIF (University Industry Foundation), Yonsei University, priority 2023, published 2025).
Where no end group is shown, it is not given here.

How the values were obtained:
HUVEC cells = assay: MTT assay (cell proliferation); type: cell-based, human; conditions: 0-300 μM, up to 72 hours
Method: Human umbilical vein endothelial cells (HUVECs) were cultured in EBM-2 medium supplemented with FBS (2%, v/v) and antibiotics. After seeding the cells in a 96-well plate at 3,000 cells/well and culturing the same, they were treated with the prepared fusion peptides on the next day at concentrations of 0, 100, 200, and 300 μM. After 0, 24, 48, and 72 hours, MTT solution (2 mg/mL) was treated at a concentration of 0.4 mg/mL. After culturing for 3 hours, the medium was removed and the cells were treated with DMSO. Then, fluorescence was measured at 540 nm.
Afterwards, 3-[4,5-dimethylthiazol-2-yl]-2,5-diphenyltetrazolium bromide (MTT) assay, which allows observation of cell proliferation by fluorescence, was performed to confirm the optimal concentration of the fusion peptide 4 in the HUVEC cells.

ApoE knockout mice = assay: Atherosclerosis animal model (high-cholesterol diet, ApoE knockout mice); type: in vivo; conditions: 50 mg/kg intraperitoneally every 2 days for 8 weeks
Method: Animal experiment was performed in accordance with the guidelines approved by the Institutional Animal Care and Use Committee of Yonsei University (IACUC-A-202404-1847-02). 6-week-old male ApoE knockout B6.KOR/StmSlc-Apoeshl mice were housed in a specific pathogen-free system with a 12-hour light-dark cycle with free access to food and water, and randomly divided into three groups (control, positive control, and test groups). Then, the sample was injected intraperitoneally to the control group (vehicle), the positive control group (CTS (cryptotanshinone), 20 mg/kg), and the test group (peptide, 50 mg/kg) once every two days for 8 weeks while feeding the mice with a high-cholesterol diet until the end of the experiment (for 8 weeks).
After sacrificing the mice, PBS perfusion was performed through the left ventricle, and the heart, artery, and blood were obtained. The artery was cut along the bifurcation of the iliac artery, spread out, fixed with pins, and fixed in 10% formaldehyde for 16 hours. After staining with Oil-Red-O for 16 hours, the samples were washed with PBS and images were obtained using a microscope (NS-6T, China).
The fusion peptide 4 (50 mg/kg) was injected intraperitoneally every 2 days for 8 weeks into an animal model of atherosclerosis (high-cholesterol diet, ApoE knockout mice).

Hela cells = assay: SPLICS (ER-mitochondria split-GFP) proximity assay; type: cell-based; conditions: Hela cells transfected with SPLICS vector, 10 mM EtOH, peptide 20 μM, 1 hour, vs control (DW)
Description: To this end, MAM regulatory activity was verified using the SPLICS (ER-mitochondria split-GFP) system, which allows observation of the proximity between intracellular organelles through fluorescence emission. The SPLICS system is a system that can efficiently image the proximity of intracellular organelles based on the principle that split-GFP fluorescence is emitted when two organelles are within approximately 10 to 40 nm of each other. As the two organelles approach, complementation of GFP occurs, resulting in fluorescence at the junction. It is to be noted that increased contact between ER and mitochondria may lead to cellular stress and dysfunction.
First, to observe the change in the distance between the ER and mitochondria due to treatment with the fusion peptides, Hela cells were transfected with the SPLICS vector. Afterwards, the HeLa cells were treated with the fusion peptides and the area (%) of GFP fluorescence relative to the total area per cell was measured. […] That is to say, it was observed from the decrease in green fluorescence in the groups treated with the fusion peptides of the present disclosure that the two organelles were moving apart from each other.

Row | Substance | cell proliferation (MTT) (HUVEC cells) | body weight (ApoE knockout mice) | GFP fluorescence signal (area of GFP fluorescence relative to the total area per cell), SPLICS (Hela cells)
1 | YARVRRRGPRRRSIYYLGIGPT [fusion peptide 4, YARVRRRGPRR-RSIYYLGIGPT] | no inhibition of cell proliferation was observed even at concentrations of 100-200 μM | did not affect the body weight | 
2 | YARVRRRGPRR-DTETKME (YARVRRRGPRRDTETKME) [fusion peptide 3] |  |  | significant decrease in fluorescence signals
3 | YARVRRRGPRR-FSTAADGQTQ (YARVRRRGPRRFSTAADGQTQ) [fusion peptide 1] |  |  | significant decrease in fluorescence signals
4 | YARVRRRGPRR-GGG-FSTAADGQTQ (YARVRRRGPRRGGGFSTAADGQTQ) [fusion peptide 2, CPP Hph-1 linked to Peptide 2 (GGG-…), GRP75 motif] |  |  | significant decrease in fluorescence signals
